Test results: ChEMBL document CHEMBL5370695, “Novel Adenosine Receptor Antagonists for Treating Cancer and Immune-Related Disorders” (ACS Med Chem Lett, 2023)

What was measured:
Adenosine receptor A2b = molecular target: T1, Adenosine receptor A2b (Homo sapiens, UniProt P29275); test: Binding affinity to recombinant human adenosine A2B receptor expressed in HEK293 cell membrane incubated for 15 to 30 mins by Topcount scintillation counter assay; format: cell membranes
T1 sequence (P29275 whole entry): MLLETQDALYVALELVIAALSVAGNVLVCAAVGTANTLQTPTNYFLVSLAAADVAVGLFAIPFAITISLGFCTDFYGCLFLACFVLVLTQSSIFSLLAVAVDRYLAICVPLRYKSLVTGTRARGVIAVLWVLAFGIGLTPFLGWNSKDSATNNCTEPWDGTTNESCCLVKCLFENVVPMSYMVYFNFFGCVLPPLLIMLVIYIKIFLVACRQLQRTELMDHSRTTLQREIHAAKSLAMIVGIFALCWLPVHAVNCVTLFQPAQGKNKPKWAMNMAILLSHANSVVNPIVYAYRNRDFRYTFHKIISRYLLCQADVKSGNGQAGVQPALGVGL

Adenosine receptor A2a = Adenosine receptor A2a (Homo sapiens, UniProt P29274); test: Displacement of [3H]-SCH58261 from recombinant human adenosine A2A receptor expressed in HEK293 cell membrane incubated for 15 to 30 mins by Topcount scintillation counter assay; format: cell membranes
Sequence of Adenosine receptor A2a (P29274 whole entry): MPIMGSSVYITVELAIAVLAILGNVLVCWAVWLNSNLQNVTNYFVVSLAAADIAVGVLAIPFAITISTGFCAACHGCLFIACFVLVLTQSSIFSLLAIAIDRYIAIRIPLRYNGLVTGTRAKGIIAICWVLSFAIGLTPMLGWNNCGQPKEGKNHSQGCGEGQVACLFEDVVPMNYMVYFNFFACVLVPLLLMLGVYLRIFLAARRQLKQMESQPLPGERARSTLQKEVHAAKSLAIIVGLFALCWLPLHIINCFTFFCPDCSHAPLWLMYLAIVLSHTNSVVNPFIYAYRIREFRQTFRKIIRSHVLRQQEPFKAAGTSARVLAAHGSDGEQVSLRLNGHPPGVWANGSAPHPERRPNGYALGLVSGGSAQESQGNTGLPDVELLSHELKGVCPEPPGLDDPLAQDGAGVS

Structure (SMILES)	IC50 (Adenosine receptor A2b) [nM]	IC50 (Adenosine receptor A2a) [nM]
COc1cccc2c1nc(N)n1nc([C@H]3C[C@H](c4ccc(C(C)(C)O)cn4)C3)nc21	3.3	–
COc1cccc2c1nc(N)n1nc([C@H]3C[C@H](c4ncc(C(C)(C)N)cc4Cl)C3)nc21	2.7	0.8
COc1cccc2c1nc(N)n1nc(C3CC3c3ccc4c(c3)CCNC4)nc21 (stereo unspecified)	3.1	1.1
COc1cccc2c1nc(N)n1nc([C@H]3C[C@H](c4ncc(C(C)(C)N)cc4C)C3)nc21	1.6	–
